# Laboratory results reported in patent US10093699B2, “Peptides with antimicrobial, anticancer and/or wound-healing promoting activities, pharmaceutical compositions containing the same, and use of the peptides with antimicrobial, anticancer and/or wound-healing promoting activities” (priority 2015, dated 2018).
# Where a SMILES comes first, the peptide text is derived from it. [ ]: non-standard residue; d: D form. 2Nal = N[C@@H](Cc1ccc2ccccc2c1)C(=O)O
# Tests used:
# [1] = system: Gram-positive and Gram-negative bacterium; test: Antimicrobial activity under several salt concentrations (summary in words); type: cell-based
# Method: Escherichia coli strain (ATCC 25922), Staphylococcus aureus subsp strain (ATCC 25923, methicillin-resistant), and Pseudomonas aeruginosa Migula strain (ATCC 27853, ampicillin-resistant) were used to test the antibacterial activity of the peptides. Bacteria were cultured in sterilized Mueller-Hinton (MH) culturing medium at 200 rpm and 37° C. for 8 hours.
# The antibacterial activities were determined by the standard broth microdilution method of National Committee for Clinical Laboratory Standards with the LYM broth. The LYM broth contains 5.4 mM KCl, 5.6 mM Na2HPO4, 0.5 mM MgSO4, and 1.0 mM sodium citrate. In addition, 0.4 mg of ZnCl2, 2.0 mg of FeCl3. 6H2O, 0.1 mg of CuSO4. 5H2O, 0.1 mg of MnSO4.H2O, 0.1 mg of Na2B4O7.10H2O, 700 mg of amino acid mixtures without tryptophan (Clontech), and 20 mg of L-Tryptophan were added per liter of medium. A vitamin mixture (100×, Sigma) and glucose at final concentration of 2% were also added.
# 1 μl peptide solutions (ranging from 5000 μg/ml to 78 μg/ml in serial dilution) was prepared and mixed with 99 μl inoculum (5×10^5 CFU/ml) in polypropylene 96-well plate. The turbidity at OD 600 nm was measured by ELISA plate reader (Thermo Max, Molecular Devices, Sunnyvale, Calif.). The absorbance of culture medium and inoculum suspension without peptides were used as the negative and positive control, respectively. […]
# [2] = system: caspase 3 in PC9; test: Western blot for activated caspase 3, PC9; type: cell-based, human; conditions: 12 μM
# Method: PC9 cells were seeded in 10-cm polystyrene dishes for 48 hours. About seventy percent full of cells were treated with 12 μM K4R2Nal2S1 for 10 minutes, 1 hour or 24 hours. RPMI medium without peptide treated for 24 hours which was used as negative control.
# Cells were collected by 200 μl RIPA and protease inhibitor blended buffer. After sonication and centrifugation for 10 minutes, 13000 rpm at 4° C., supernatants (lysis of cell) were collected. Protein concentrations of cell extracts were determined by Bradford reagent. Equal amount of boiled lysates (total 50 μg) were separated on 10% acrylamide gel. The gel was transferred to PVDF membrane in electro-blot system, 300 V, […], and 80 minutes.
# The membrane was incubated in blocking buffer (5% skim milk, TBST buffer) for 1 hour at room temperature and washed in TBST buffer twice. Blocked membrane was incubated with Caspase-3 antibody (EPITOMICS, clone ID: E83-77) overnight at 4° C., washed for five times, and then incubated in secondary antibody (HRP, GeneTex catalogue number: GTX21311-01) for 1 hour at room temperature. The signals were visualized by enhanced chemiluminescence (ECL) and recorded by a detected system (ImageQuant LAS 4000 mini).
# [3] = system: caspase 3 in HFW cells; test: Western blot for activated caspase 3, HFW; type: cell-based, human
# [4] = system: HaCaT cells; test: Cell migration assay (in vitro wound healing assay); type: cell-based; conditions: different concentrations of peptide; 12 and 24 h
# Method: HaCaT cells (40,000) suspended in DMEM medium supplemented with 10% fetal bovine serum were seeded on each side of an ibidi culture insert (ibidi, Germany). Inserts were placed into 24-well plate. After incubated at 37° C. and 5% CO2 overnight, inserts were removed and 1 ml of serum-free DMEM medium supplemented with different concentrations of peptide was added. Medium without peptide and with 100 ng/ml EGF (epidermal growth factor) were negative and positive controls. At 0, 12 and 24 h, the images of injury area were observed using the Inverted Fluorescent Microscope Zeiss/Observer.Z1 (10×). Wound area was estimated by Adobe Photoshop. The repairing rate was calculated: repairing rate=(areat0−areat12,24)/areat0, wherein t represents time.
# [5] = system: HFW cells; test: Cell live image (phase-contrast and immunofluorescence), HFW; type: cell-based, human; conditions: 12 μM, 5 minutes
# Method: (§1) PC9 and HFW cells (˜10^5 cells) were pre-seeded in 6-cm polystyrene dishes for 24 hours. Cell nuclear is labeled by 4′,6-diamidino-2-phenylindole (DAPI) with a final concentration of 10 μg/ml. After 10 minutes of incubation, the cells were washed by PBS. FITC-K4R2Nal2S1-NH2 was added to the dishes with the final concentration of 12 μM. After incubation for 5, 10, 20 minutes or 1 hour at 37° C., the cells were washed with PBS. The images of FITC-K4R2Nal2S1-NH2 in PC9 cells and HFW cells were observed using the Inverted Fluorescent Microscope Zeiss/Observer.Z1.
# (§2) To investigate the mode of actions of K4R2Nal2-S1 peptide on human cancer cell line (PC9) and human fibroblast (HFW), cells were treated with FITC-labeled K4R2-Nal2-S1. Nucleus was labeled with DAPI, and the blue signal was observed by UV exciting light. The fluorescence distribution of FITC-labeled K4R2-Nal2-S1 peptide on cell membrane was visualized by the inverted fluorescent microscope.
# [6] = system: PC9 cells; test: Cell live image (phase-contrast and immunofluorescence), PC9; type: cell-based, human; conditions: 12 μM, 5 minutes
# Method: as §1, §2
smiles,measurement,setting,value
"CC(=O)N[C@@H](CCCCN)C(=O)N[C@@H](CCCCN)C(=O)N[C@@H](CCCCN)C(=O)N[C@@H](CCCCN)C(=O)N[C@@H](CCCNC(=N)N)C(=O)N[C@@H](CCCNC(=N)N)C(=O)N[C@@H](Cc1ccc2ccccc2c1)C(=O)N[C@@H](Cc1ccc2ccccc2c1)C(=O)N[C@@H](CCCCN)C(=O)N[C@@H](CCCCN)C(=O)N[C@@H](Cc1c[nH]c2ccccc12)C(=O)N[C@@H](CCCNC(=N)N)C(=O)N[C@@H](CCCCN)C(=O)N[C@@H](Cc1c[nH]c2ccccc12)C(=O)N[C@@H](CC(C)C)C(=O)N[C@@H](C)C(=O)N[C@@H](CCCCN)C(=O)N[C@@H](CCCCN)C(N)=O [K4R2-Nal2-S1, Ac-KKKKRR-Nal-Nal-KKWRKWLAKK-NH2] (Ac-KKKKRR[2Nal][2Nal]KKWRKWLAKK-NH2)",effectiveness against bacterium,[1]; LYM broth condition,very effective
same,antimicrobial activities in high-salt conditions,[1]; addition of 100 or 200 mM NaCl,promising activities
same,caspase 3 activation (immunoblotting),[2],activated caspase 3
same,caspase 3 activation (immunoblotting),[3],not in HFW cells
same,wound healing (repairing rate) compared to negative control,[4],better effects of wound healing
same,cellular swelling (phase-contrast microscopy),[5],not in HFW cells
same,cellular swelling (phase-contrast microscopy),[6],induced cellular swelling
